Reference: patent US11802127B2, “3,4-dihydro-2,7-naphthyridine-1,6(2H,7H)-diones as MEK inhibitors” (Pfizer Inc., priority 2021, dated 2023)

Legend:
[1] = system: ERK1/2(Thr202/Tyr204) phosphorylation (MEK-dependent) in A375 cells; experiment: Cellular Phospho-p44/42 MAPK (Erk1/2) (Thr202/Tyr204) Assay; type: cell-based; conditions: Homo sapiens, A-375, 1-hour incubation, pERK1/2 (Thr202/Tyr204) In-Cell Western normalized to GAPDH
Protocol: Inhibition of ERK1/2(Thr202/Tyr204) phosphorylation was determined by the following cellular assay, which comprises incubating cells with a compound for 1 hour and quantifying pERK signal by In-Cell Western on fixed cells and normalizing to GAPDH signal. A375 cells were obtained from the ATCC and grown in DMEM supplemented with 10% fetal bovine serum, penicillin/streptomycin, Glutamax®, non-essential amino acids, and sodium pyruvate. Cells were plated in 96-well plates at 30,000 cells/well and allowed to attach overnight at 37° C./5% CO2. Cells were treated with compounds prepared as a 10-point, 1:3 dilution series (range: 20 μM-0.05 nM; maximum concentration varied from 20 μM-1 μM), with a final DMSO concentration of 0.5%. Control wells contained either 0.5% DMSO alone (no inhibition control) or 1 μM of a potent control compound (complete inhibition control). After a 1-hour incubation, cells were fixed in 3.7% formaldehyde in dPBS (Dulbecco's phosphate-buffered saline) at room temperature for 20 minutes. Cells were then washed with dPBS and permeabilized in 100% MeOH at room temperature for 10 minutes. Following permeabilization, cells were washed in dPBS and incubated in LI-COR Blocking Buffer (LI-COR Biosciences, Cat #927-40000) for 1 hour or longer. Plates were then incubated with an antibody specific for the MEK-dependent ERK1/2 phosphorylation sites, threonine 202 and tyrosine 204 (Cell Signaling Technologies; Cat #9101), downstream of MEK in the MAP kinase signal transduction pathway, as well as GAPDH (Millipore; Cat #MAB374). pErk1/2 (Thr202/Tyr204) antibody was diluted in LI-COR blocking buffer containing 0.05% Tween-20 at 1:250; GAPDH was diluted at 1:2,500. The plates were incubated overnight at 4° C. After washing with PBS/0.05% Tween-20, the cells were incubated with fluorescently-labeled secondary antibodies (Anti-rabbit-Alexa Flour680, Invitrogen Cat #A21109; Anti-mouse-IRDye800CW, LI-COR Biosciences Cat #926-32210, both at 1:1000 dilution) for 1 hour. Cells were then washed, as above, and analyzed for fluorescence at both 680 and 800 nm wavelengths using the Odyssey CLx Infrared Imaging System (LI-COR Biosciences). Phosphorylated Erk1/2 (Thr202/Tyr204) signal was normalized to GAPDH signal for each well.

[2] = MDR1 LLC-PK1 and BCRP MDCKII Permeability Assay: permeability coefficient (Papp); type: in vitro ADME; conditions: MDCK, test article 1 μM, 37° C.
Protocol: (§1) Both LLC-PK1 and MDR1 transfected LLC-PK1 cells were cultured and plated according to manufacturer's recommendations with the exception that the passage media contained only 2% fetal bovine serum to extend passage time out to seven days.
(§2) BCRP transfected MDCKII canine P-gp knockout cell line was cultured and plated according to manufacturer's recommendations.
(§3) Both positive and negative controls were used to assess functionality of P-gp or BCRP efflux in the assays. Stock solutions for assay controls and the test article were prepared in DMSO for final test concentrations of 10 and 1 μM, respectively. Final organic concentration in the assay was 1%. All dosing solutions contained 10 μM lucifer yellow to monitor LLC-PK1 or MDCKII cell monolayer integrity.
(§4) For the apical to basolateral determination (A to B), 75 μL of the test article in transport buffer were added to the apical side of the individual transwells and 250 μL of basolateral media, without compound or lucifer yellow, were added to each well. For the basolateral to apical determination (B to A), 250 μL of test article in transport buffer were added to each well and 75 μL transport buffer, without compound or lucifer yellow, were added to each transwell. All tests were performed in triplicate, and each compound was tested for both apical to basolateral and basolateral to apical transport. The plates were incubated for 2 hours on a Lab-Line Instruments Titer Orbital Shaker (VWR, West Chester, PA) at 50 rpm and 37° C. with 5% CO2. All culture plates were removed from the incubator and 50 μL of media were removed from the apical and basolateral portion of each well and added to 150 μL of 1 μM labetalol in 2:1 acetonitrile (acetonitrile): H2O, v/v.
(§5) The plates were read using a Molecular Devices (Sunnyvale, CA) Gemini Fluorometer to evaluate the lucifer yellow concentrations at excitation/emission wavelengths of 425/535 nm. These values were accepted when found to be below 2% for apical to basolateral and 5% basolateral to apical flux across the MDR1-transfected LLC-PK1 or BCRP-transfected MDCKII cell monolayers. The plates were sealed and the contents of each well analyzed by LC-MS/MS. The compound concentrations were determined from the ratio of the peak areas of the compound to the internal standard (labetalol) in comparison to the dosing solution.
(§6) The LC-MS/MS system was comprised of an HTS-PAL autosampler (Leap Technologies, Carrboro, NC), an HP1200 HPLC (Agilent, Palo Alto, CA), and a MDS Sciex 4000 Q Trap system (Applied Biosystems, Foster City, CA). […] The total run time, including re-equilibration, for a single injection was 1.2 minutes. Mass spectrometric detection of the analytes was accomplished using the ion spray positive mode. Analyte responses were measured by multiple reaction monitoring (MRM) of transitions unique to each compound (the protonated precursor ion and selected product ions for each test article and m/z 329 to m/z 162 for labetalol, the internal standard).

[3] = biological target: T1, P-gp (MDR1) (Homo sapiens, UniProt P08183); experiment: Efflux ratio in MDR1 transfected LLC-PK1 cells; type: in vitro ADME; conditions: pig, Papp(B−A)/Papp(A−B)
T1 construct: expressed in transfected cells; host or cells: LLC-PK1 (porcine kidney) cells transfected with MDR1
Protocol: as §1, §3, §4, §5, §6
(§7) An efflux ratio is calculated from the mean apical to basolateral (A−B) Papp data and basolateral to apical (B−A) Papp data: Efflux ratio=Papp(B−A)/Papp(A−B)

[4] = biological target: T2, BCRP (hBCRP) (Homo sapiens, UniProt Q9UNQ0); experiment: Efflux ratio in BCRP transfected MDCKII canine P-gp knockout cells; type: in vitro ADME; conditions: Papp(B−A)/Papp(A−B), read-out: Efflux ratio MDCKII-hBCRP knock-in,canine pg-P KO
T2 construct: expressed in transfected cells; host or cells: MDCKII (canine kidney) cells, canine P-gp knockout, transfected with BCRP
T2 sequence (Q9UNQ0 1-655): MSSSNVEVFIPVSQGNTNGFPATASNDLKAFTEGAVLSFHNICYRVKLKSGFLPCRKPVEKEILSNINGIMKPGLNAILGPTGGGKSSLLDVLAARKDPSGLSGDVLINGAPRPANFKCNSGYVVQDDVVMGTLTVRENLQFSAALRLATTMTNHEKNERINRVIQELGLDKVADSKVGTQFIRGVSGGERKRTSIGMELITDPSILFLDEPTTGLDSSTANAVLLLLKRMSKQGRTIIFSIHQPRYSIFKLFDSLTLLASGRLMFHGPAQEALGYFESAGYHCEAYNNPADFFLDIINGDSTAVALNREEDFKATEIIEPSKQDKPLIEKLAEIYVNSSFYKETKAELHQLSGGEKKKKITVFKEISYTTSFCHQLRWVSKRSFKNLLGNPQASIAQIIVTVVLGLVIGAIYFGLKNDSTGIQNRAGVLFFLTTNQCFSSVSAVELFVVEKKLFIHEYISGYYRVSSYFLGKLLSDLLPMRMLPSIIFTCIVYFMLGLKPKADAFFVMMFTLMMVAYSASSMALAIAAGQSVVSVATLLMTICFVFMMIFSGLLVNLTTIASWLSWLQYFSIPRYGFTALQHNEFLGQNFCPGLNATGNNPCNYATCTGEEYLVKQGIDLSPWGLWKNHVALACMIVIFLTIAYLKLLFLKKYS
Protocol: as §2, §3, §4, §5, §6, §7

T1 sequence (P08183 whole entry): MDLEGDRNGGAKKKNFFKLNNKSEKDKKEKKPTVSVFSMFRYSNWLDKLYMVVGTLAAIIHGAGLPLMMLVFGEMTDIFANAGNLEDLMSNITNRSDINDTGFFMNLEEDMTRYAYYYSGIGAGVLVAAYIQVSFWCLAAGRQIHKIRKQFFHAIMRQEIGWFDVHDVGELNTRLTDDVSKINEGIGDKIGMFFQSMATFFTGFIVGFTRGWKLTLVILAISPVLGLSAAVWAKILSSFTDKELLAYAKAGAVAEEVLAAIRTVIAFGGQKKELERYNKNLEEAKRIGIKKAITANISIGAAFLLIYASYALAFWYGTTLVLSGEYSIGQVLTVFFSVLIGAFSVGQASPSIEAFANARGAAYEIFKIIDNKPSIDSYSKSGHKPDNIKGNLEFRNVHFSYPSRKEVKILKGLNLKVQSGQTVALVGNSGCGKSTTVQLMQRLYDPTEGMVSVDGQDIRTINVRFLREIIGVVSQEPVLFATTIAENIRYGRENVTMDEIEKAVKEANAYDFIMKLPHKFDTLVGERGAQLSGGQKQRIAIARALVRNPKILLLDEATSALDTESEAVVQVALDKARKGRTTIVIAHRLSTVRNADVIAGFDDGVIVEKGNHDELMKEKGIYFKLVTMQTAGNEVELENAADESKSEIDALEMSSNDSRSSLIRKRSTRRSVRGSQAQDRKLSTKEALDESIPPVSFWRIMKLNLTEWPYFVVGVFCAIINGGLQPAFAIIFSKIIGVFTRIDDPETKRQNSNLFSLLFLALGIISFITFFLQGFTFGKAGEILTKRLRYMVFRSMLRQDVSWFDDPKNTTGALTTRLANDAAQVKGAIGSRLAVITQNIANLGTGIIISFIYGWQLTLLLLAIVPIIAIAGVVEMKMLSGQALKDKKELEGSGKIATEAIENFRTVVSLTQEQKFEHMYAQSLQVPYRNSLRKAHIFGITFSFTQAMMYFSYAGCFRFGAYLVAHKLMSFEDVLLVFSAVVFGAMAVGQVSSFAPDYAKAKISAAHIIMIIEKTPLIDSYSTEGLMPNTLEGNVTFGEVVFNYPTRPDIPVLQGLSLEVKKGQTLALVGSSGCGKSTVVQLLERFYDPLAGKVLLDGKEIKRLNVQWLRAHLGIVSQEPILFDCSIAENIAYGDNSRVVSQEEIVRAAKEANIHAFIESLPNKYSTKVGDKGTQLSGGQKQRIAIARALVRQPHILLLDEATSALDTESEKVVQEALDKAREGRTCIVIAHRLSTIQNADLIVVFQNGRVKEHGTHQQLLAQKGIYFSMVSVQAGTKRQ

Row | Papp at 2 h, 1 μM [2] [×10⁻⁶ cm/s] | efflux ratio at 2 h, 1 μM [3] | efflux ratio at 2 h, 1 μM [4] | SMILES | IC50 [1] [µM]
1 | 26.5 | 6.7 | 6.3 | Cn1c(Nc2ccc(Br)cc2Cl)c2c(cc1=O)CCN(OCCO)C2=O [Example 10, 8-((4-bromo-2-chlorophenyl)amino)-2-(2-hydroxyethoxy)-7-methyl-3,4-dihydro-2,7-naphthyridine-1,6(2H,7H)-dione] | 0.058
2 | 27.5 | 3.7 | 2.2 | Cn1c(Nc2ccc(C3CC3)cc2F)c2c(cc1=O)CCN(OCCO)C2=O [Example 15, 8-((4-cyclopropyl-2-fluorophenyl)amino)-2-(2-hydroxyethoxy)-7-methyl-3,4-dihydro-2,7-naphthyridine-1,6(2H,7H)-dione] | 0.017
3 | 25.9 | 3.3 | 1.5 | Cn1c(Nc2ccc(C3CC3)cc2Cl)c2c(cc1=O)CCN(OCCO)C2=O [Example 19, 8-((2-chloro-4-cyclopropylphenyl)amino)-2-(2-hydroxyethoxy)-7-methyl-3,4-dihydro-2,7-naphthyridine-1,6(2H,7H)-dione] | 0.029
4 | 28.8 | 4.2 | 3 | CSc1ccc(Nc2c3c(cc(=O)n2C)CCN(OCCO)C3=O)c(Cl)c1 [Example 21, 8-((2-chloro-4-(methylthio)phenyl)amino)-2-(2-hydroxyethoxy)-7-methyl-3,4-dihydro-2,7-naphthyridine-1,6(2H,7H)-dione] | 0.01
5 | 30.4 | 3.2 | 2 | CCc1ccc(Nc2c3c(cc(=O)n2C)CCN(OCCO)C3=O)c(Cl)c1 [Example 23, 8-((2-chloro-4-ethylphenyl)amino)-2-(2-hydroxyethoxy)-7-methyl-3,4-dihydro-2,7-naphthyridine-1,6(2H,7H)-dione] | 0.026
6 | 26.4 | 5.7 | 14.1 | Cn1c(Nc2ccc(SC(F)F)cc2F)c2c(cc1=O)CCN(OCCO)C2=O [Example 25, 8-((4-((difluoromethyl)thio)-2-fluorophenyl)amino)-2-(2-hydroxyethoxy)-7-methyl-3,4-dihydro-2,7-naphthyridine-1,6(2H,7H)-dione] | 0.003

Second part, the compound before the results:

Row | SMILES | Papp at 2 h, 1 μM [2] [×10⁻⁶ cm/s] | efflux ratio at 2 h, 1 μM [3] | efflux ratio at 2 h, 1 μM [4] | IC50 [1] [µM]
7 | CC(C)ON1CCc2cc(=O)n(C)c(Nc3ccc(I)cc3F)c2C1=O [Example 27, 8-((2-fluoro-4-iodophenyl)amino)-2-isopropoxy-7-methyl-3,4-dihydro-2,7-naphthyridine-1,6(2H,7H)-dione] | 25.1 | 0.9 | 1.4 | 0.142
8 | CCON1CCc2cc(=O)n(C)c(Nc3ccc(I)cc3F)c2C1=O [Example 28, 2-ethoxy-8-((2-fluoro-4-iodophenyl)amino)-7-methyl-3,4-dihydro-2,7-naphthyrdine-1,6(2H,7H)-dione] | 26.1 | 1.1 | 1.1 | 0.026
9 | CON1CCc2cc(=O)n(C)c(Nc3ccc(I)cc3F)c2C1=O [Example 29, 8-((2-fluoro-4-iodophenyl)amino)-2-methoxy-7-methyl-3,4-dihydro-2,7-naphthyridine-1,6(2H,7H)-dione] | 32.8 | 1.5 | 1.1 | 0.017
10 | C[C@H](O)CON1CCc2cc(=O)n(C)c(Nc3ccc(I)cc3F)c2C1=O [Example 31, (S)-8-((2-fluoro-4-iodophenyl)amino)-2-(2-hydroxypropoxy)-7-methyl-3,4-dihydro-2,7-naphthyridine-1,6(2H,7H)-dione] | 24.8 | 5.3 | 4.4 | 0.001
11 | C[C@@H](O)CON1CCc2cc(=O)n(C)c(Nc3ccc(I)cc3F)c2C1=O [Example 32, (R)-8-((2-fluoro-4-iodophenyl)amino)-2-(2-hydroxypropoxy)-7-methyl-3,4-dihydro-2,7-naphthyridine-1,6(2H,7H)-dione] | 24.8 | 6.5 | 5.2 | 0.01
12 | C[C@H](O)CON1CCc2cc(=O)n(C)c(Nc3ccc(Br)cc3F)c2C1=O [Example 33, (S)-8-((4-bromo-2-fluorophenyl)amino)-2-(2-hydroxypropoxy)-7-methyl-3,4-dihydro-2,7-naphthyridine-1,6(2H,7H)-dione] | 24.7 | 4 | 8.3 | 0.019
13 | Cn1c(Nc2ccc(Br)cc2F)c2c(c(Cl)c1=O)CCN(OCCO)C2=O [Example 37, 8-((4-bromo-2-fluorophenyl)amino)-5-chloro-2-(2-hydroxyethoxy)-7-methyl-3,4-dihydro-2,7-naphthyridine-1,6(2H,7H)-dione] | 28.6 | 2.7 | 3.3 | 0.116
